Experimental data from patent US20190185865A1, “USE OF PROKARYOTIC TRANSCRIPTIONAL ACTIVATORS AS METABOLITE BIOSENSORS IN EUKARYOTIC CELLS” (Danmarks Tekniske Universitet, priority 2016, published 2019).

Target: T1, BenM (Acinetobacter baylyi, UniProt O68014)
T1 construct: expressed in transfected cells; host or cells: Saccharomyces cerevisiae CEN.PK113-5A, chromosomal integration; promoters TDH3p, TEF1p, RNR2p or REV1p
Assay: CCM-induced GFP expression in yeast strains combining BenM expression cassettes and CYC1p reporter promoter variants (flow cytometry)
Type: cell-based, Saccharomyces cerevisiae
Settings: for FC (+/−CCM): 1.4 mM CCM, 24 h
Text: Strains, chemicals and media. Saccharomyces cerevisiae CEN.PK102-5B (MATa ura3-52 his3Δ1 leu2-3/112 MAL2-8^c SUC2), CEN.PK113-5A (MATa, trp1 his3Δ1 leu2-3/112 MAL2-8^c SUC2) and CEN.PK113-7D (wild type, MATa MAL2-8^c SUC2) strains were obtained from Peter Kotter (Johann Wolfgang Goethe-University Frankfurt, Germany). In principal any other yeast strains may be used, such as one obtained from public repository EuroScarf. EasyClone plasmids used in this work are described in Jensen, N. B. et al. EasyClone: method for iterative chromosomal integration of multiple genes in Saccharomyces cerevisiae. FEMS Yeast Res. 14, 238-48 (2014). Escherichia coli strain DH5a was used as a host for cloning and plasmid propagation. The chemicals and Pfu TURBO DNA polymerase were commercially obtained (Sigma-Aldrich and Agilent Technologies Inc., respectively). All acids used were >97% in purity. S. cerevisiae cells were grown at 30° C. in synthetic complete medium as well as drop-out media and agar plates were prepared using pre-mixed drop-out powders (Sigma-Aldrich). Mineral medium was freshly prepared as described previously. For all media containing diacids, 1.4 mM of the individual diacids were dissolved in mineral medium and pH adjusted to 4.5 before sterile filtration. For CCM several dilutions were made to examine the performance of the CCM biosensor. For naringenin, mineral medium was supplemented with 0, 0.05, 0.10 or 0.20 mM naringenin, dissolved in ethanol, the final ethanol concentration for each medium was 2% (v/v), and the final pH of the medium was adjusted to 6.0. E. coli cells were grown at 37° C. in Luria-Bertani (LB) medium supplemented with 100 μg/mL ampicillin.
Events were analyzed using FlowJo software (TreeStar Inc.).

[1] = strain MeLS0162, RNR2p-BenM + 249bp_CYC1p:GFP
[2] = strain MeLS0163, RNR2p-BenM + 209bp_CYC1p:GFP
[3] = strain MeLS0164, TDH3p-BenM + 491bp_CYC1p:GFP
[4] = strain MeLS0165, TDH3p-BenM + 272bp_CYC1p:GFP
[5] = strain MeLS0166, TDH3p-BenM + 249bp_CYC1p:GFP
[6] = strain MeLS0167, TDH3p-BenM + 209bp_CYC1p:GFP
[7] = strain MeLS0168, TEF1p-BenM + 491bp_CYC1p_BenO_T1:GFP
[8] = strain MeLS0169, TEF1p-BenM + 249bp_CYC1p_BenO_T1:GFP
[9] = strain MeLS0170, RNR2p-BenM + 491bp_CYC1p_BenO_T1:GFP
[10] = strain MeLS0171, RNR2p-BenM + 249bp_CYC1p_BenO_T1:GFP
[11] = strain MeLS0172, TDH3p-BenM + 491bp_CYC1p_BenO_T1:GFP
[12] = strain MeLS0173, TDH3p-BenM + 249bp_CYC1p_BenO_T1:GFP
[13] = strain MeLS0182, TEF1p-BenM + 272bp_CYC1p_BenO_T2:GFP
[14] = strain MeLS0183, TEF1p-BenM + 272bp_CYC1p_BenO_T1/T2:GFP
[15] = strain MeLS0184, TEF1p-BenM + 249bp_CYC1p_BenO_T2:GFP
[16] = strain MeLS0185, TEF1p-BenM + 249bp_CYC1p_BenO_T1/T2:GFP
[17] = strain MeLS0186, REV1p-BenM + 272bp_CYC1p_BenO_T2:GFP
[18] = strain MeLS0187, REV1p-BenM + 272bp_CYC1p_BenO_T1/T2:GFP
[19] = strain MeLS0188, REV1p-BenM + 249bp_CYC1p_BenO_T2:GFP
[20] = strain MeLS0189, REV1p-BenM + 249bp_CYC1p_BenO_T1/T2:GFP
[21] = strain MeLS0190, TDH3p-BenM + 272bp_CYC1p_BenO_T2:GFP
[22] = strain MeLS0191, TDH3p-BenM + 272bp_CYC1p_BenO_T1/T2:GFP
[23] = strain MeLS0192, TDH3p-BenM + 249bp_CYC1p_BenO_T2:GFP
[24] = strain MeLS0193, TDH3p-BenM + 249bp_CYC1p_BenO_T1/T2:GFP
[25] = strain MeLS0195, RNR2p-BenM + 272bp_CYC1p_BenO_T1/T2:GFP
[26] = strain MeLS0196, RNR2p-BenM + 249bp_CYC1p_BenO_T2:GFP
[27] = strain MeLS0197, RNR2p-BenM + 249bp_CYC1p_BenO_T1/T2:GFP
[28] = strain MeLS0263, TDH3p-BenM + 491bp_CYC1p_BenO_T2:GFP
[29] = strain MeLS0264, TDH3p-BenM + 209bp_CYC1p_BenO_T2:GFP
[30] = strain MeLS0265, RNR2p-BenM + 491bp_CYC1p_BenO_T2:GFP
[31] = strain MeLS0266, RNR2p-BenM + 209bp_CYC1p_BenO_T2:GFP
[32] = strain MeLS0267, TDH3p-BenM + 491bp_CYC1p_BenO_T1/T2:GFP
[33] = strain MeLS0268, TDH3p-BenM + 209bp_CYC1p_BenO_T1/T2:GFP
[34] = strain MeLS0269, RNR2p-BenM + 491bp_CYC1p_BenO_T1/T2:GFP
[35] = strain MelS0194, RNR2p-BenM + 272bp_CYC1p_BenO_T2:GFP

T1 sequence (O68014 whole entry): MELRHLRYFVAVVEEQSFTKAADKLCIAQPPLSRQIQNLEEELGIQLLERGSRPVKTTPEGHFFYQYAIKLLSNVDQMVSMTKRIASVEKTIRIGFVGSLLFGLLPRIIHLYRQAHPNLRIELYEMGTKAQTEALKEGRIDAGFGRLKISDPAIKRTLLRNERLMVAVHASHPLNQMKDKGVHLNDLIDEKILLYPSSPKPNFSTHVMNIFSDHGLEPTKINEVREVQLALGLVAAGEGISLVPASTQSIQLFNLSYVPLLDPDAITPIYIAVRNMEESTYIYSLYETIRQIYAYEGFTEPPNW

O=C(O)/C=C\C=C/C(=O)O [CCM, cis, cis-muconic acid]
Mean fluorescense intensities of GFP (24 h), CCM (1.4 mM) [1]: 164
FC (+/−CCM) [1]: 1.121
Mean fluorescense intensities of GFP (24 h), CCM (1.4 mM) [2]: 164
FC (+/−CCM) [2]: 1.121
Mean fluorescense intensities of GFP (24 h), CCM (1.4 mM) [3]: 4509
FC (+/−CCM) [3]: 1.126
Mean fluorescense intensities of GFP (24 h), CCM (1.4 mM) [4]: 216
FC (+/−CCM) [4]: 1.157
Mean fluorescense intensities of GFP (24 h), CCM (1.4 mM) [5]: 205
FC (+/−CCM) [5]: 1.131
Mean fluorescense intensities of GFP (24 h), CCM (1.4 mM) [6]: 194
FC (+/−CCM) [6]: 1.09
Mean fluorescense intensities of GFP (24 h), CCM (1.4 mM) [7]: 20250
FC (+/−CCM) [7]: 1.312
Mean fluorescense intensities of GFP (24 h), CCM (1.4 mM) [8]: 2913
FC (+/−CCM) [8]: 4.337
Mean fluorescense intensities of GFP (24 h), CCM (1.4 mM) [9]: 6114
FC (+/−CCM) [9]: 1.089
Mean fluorescense intensities of GFP (24 h), CCM (1.4 mM) [10]: 290
FC (+/−CCM) [10]: 1.549
Mean fluorescense intensities of GFP (24 h), CCM (1.4 mM) [11]: 10605
FC (+/−CCM) [11]: 1.538
Mean fluorescense intensities of GFP (24 h), CCM (1.4 mM) [12]: 3554
FC (+/−CCM) [12]: 4.707
Mean fluorescense intensities of GFP (24 h), CCM (1.4 mM) [13]: 211
FC (+/−CCM) [13]: 1.155
Mean fluorescense intensities of GFP (24 h), CCM (1.4 mM) [14]: 511
FC (+/−CCM) [14]: 1.969
Mean fluorescense intensities of GFP (24 h), CCM (1.4 mM) [15]: 475
FC (+/−CCM) [15]: 1.653
Mean fluorescense intensities of GFP (24 h), CCM (1.4 mM) [16]: 9992
FC (+/−CCM) [16]: 3.797
Mean fluorescense intensities of GFP (24 h), CCM (1.4 mM) [17]: 197
FC (+/−CCM) [17]: 1.201
Mean fluorescense intensities of GFP (24 h), CCM (1.4 mM) [18]: 370
FC (+/−CCM) [18]: 1.789
Mean fluorescense intensities of GFP (24 h), CCM (1.4 mM) [19]: 194
FC (+/−CCM) [19]: 1.215
Mean fluorescense intensities of GFP (24 h), CCM (1.4 mM) [20]: 181
FC (+/−CCM) [20]: 1.22
Mean fluorescense intensities of GFP (24 h), CCM (1.4 mM) [21]: 218
FC (+/−CCM) [21]: 1.088
Mean fluorescense intensities of GFP (24 h), CCM (1.4 mM) [22]: 691
FC (+/−CCM) [22]: 1.892
Mean fluorescense intensities of GFP (24 h), CCM (1.4 mM) [23]: 978
FC (+/−CCM) [23]: 1.761
Mean fluorescense intensities of GFP (24 h), CCM (1.4 mM) [24]: 1630
FC (+/−CCM) [24]: 4.004
Mean fluorescense intensities of GFP (24 h), CCM (1.4 mM) [25]: 199
FC (+/−CCM) [25]: 1.238
Mean fluorescense intensities of GFP (24 h), CCM (1.4 mM) [26]: 349
FC (+/−CCM) [26]: 1.575
Mean fluorescense intensities of GFP (24 h), CCM (1.4 mM) [27]: 256
FC (+/−CCM) [27]: 1.571
Mean fluorescense intensities of GFP (24 h), CCM (1.4 mM) [28]: 1197
FC (+/−CCM) [28]: 1.898
Mean fluorescense intensities of GFP (24 h), CCM (1.4 mM) [29]: 527
FC (+/−CCM) [29]: 1.495
Mean fluorescense intensities of GFP (24 h), CCM (1.4 mM) [30]: 698
FC (+/−CCM) [30]: 1.513
Mean fluorescense intensities of GFP (24 h), CCM (1.4 mM) [31]: 179
FC (+/−CCM) [31]: 1.072
Mean fluorescense intensities of GFP (24 h), CCM (1.4 mM) [32]: 2218
FC (+/−CCM) [32]: 2.64
Mean fluorescense intensities of GFP (24 h), CCM (1.4 mM) [33]: 2172
FC (+/−CCM) [33]: 3.25
Mean fluorescense intensities of GFP (24 h), CCM (1.4 mM) [34]: 2589
FC (+/−CCM) [34]: 2.005
Mean fluorescense intensities of GFP (24 h), CCM (1.4 mM) [35]: 258
FC (+/−CCM) [35]: 1.065
specificity of GFP induction among diacids tested (wild-type BenM, diacids 1.4 mM, pH 4.5, 24 h): induce GFP expression specifically in response to CCM
